Measurements published in patent US10233144B2, “Crystalline form of AHU377, preparation method and use thereof” (CRYSTAL PHARMATECH CO., LTD., priority 2015, dated 2019).

Assay: Hygroscopicity assessment by dynamic vapor sorption (DVS)
Type: physicochemical
Conditions: 25° C.; for weight gain under 80% RH: DVS, 10 mg sample
Experimental: Dynamic Vapor Sorption (DVS) was measured via a SMS (Surface Measurement Systems) DVS Intrinsic. Typical Parameters for DVS test are listed below. Temperature: 25° C. Gas and flow rate: N2, 200 mL/min dm/dt: 0.002%/min RH range: 0% RH to 95% RH 10 mg of crystalline Form I of the present disclosure was tested using dynamic vapor sorption (DVS). 4. The DVS isotherm plot of crystalline Form I is depicted in FIG. 4. About hygroscopicity characterization description and definition of hygroscopicity (Chinese Pharmacopoeia 2010 edition appendix XIX J Drug hygroscopic test guidelines, test at 25° C.±1° C., 80% Relative Humidity) • deliquescent: sufficient water is absorbed to form a liquid; • very hygroscopic: increase in mass is equal to or greater than 15 percent; • hygroscopic: increase in mass is less than 15 percent and equal to or greater than 2 percent; • slightly hygroscopic: increase in mass is less than 2 percent and equal to or greater than 0.2 percent. • no or almost no hygroscopic: increase in mass is less than 0.2 percent

weight gain under 80% RH: 0.35% | weight gain under 80% RH (listed as crystalline Form I): 0.35%
SMILES: CCOC(=O)[C@H](C)C[C@@H](Cc1ccc(-c2ccccc2)cc1)NC(=O)CCC(=O)O [Crystalline Form I of AHU377, (2R,4S)-5-(Biphenyl-4-yl)-4-[(3-carboxypropionyl)amino]-2-methylpentanoic acid ethyl ester]
hygroscopicity (class according to hygroscopic test guidelines) (Chinese Pharmacopoeia 2010 appendix XIX J, 80% Relative Humidity): slightly hygroscopic (increase in mass is less than 2 percent and equal to or greater than 0.2 percent)
